The results in this text go back to paper PMC10641814 (Journal of Medicinal Chemistry, 2023).

In one series the target is T1, h5-HT6R (Homo sapiens, UniProt P50406).
T1 construct: expressed in transfected cells
Kind of series: 5-HT6R antagonist activity at Gs signaling, cAMP in 1321N1 cells (5-CT stimulated). Type of series: cell-based. The conditions noted are these: 1321N1 cells expressing h5-HT6R; read-out: EC50 (agonist, cAMP production). (Cyclic AMP is a second messenger, typically raised through Gs and lowered through Gi signalling.)

In series [1] the test system is oAβ25–35-induced memory deficits in rats. Kind of series: oAβ25–35-induced memory deficits in T-maze test in rats. Type of series: in vivo, rat. As to the method:
For the AD model, adult male Sprague–Dawley rats (Janvier Lab., France) weighing 260–280 g (8 weeks) at the beginning of the experiments were housed 1 week before experiments in a standard animal facility of the University of Montpellier (CECEMA, registration number E34-172-23) (12/12 h light/dark cycle with lights on at 07:00; 21 ± 1 °C, food and water ad libitum). All experiments, including sacrifices, were performed in conscious rats between 09:00 and 12:00, during the diurnal period of the circadian rhythm. Male has been preferred over female because the latter may present a confounding factor of the estrous cycle, a parameter that needs to be systematically controlled. Animal procedures were conducted in strict adherence to the European Union Directive of 2010 (2010/63/EU). The National French Animal Welfare Committee and the local committee at the University of Montpellier approved all protocols (authorization: CEEA-LR-12160). All efforts were made to minimize the number of animals used, potential pain, suffering, and distress.
As previously detailed,[37],[64] to induce the acute model of AD (oAβ25–35 model), rats were divided into three groups. One group had no surgery (Naive group), a second set of animals received an intracerebroventricular (icv) injection of incubated scrambled peptide (negative control groups—10 μg/rat—Sc), and a third set received an icv injection of oAβ25–35 (AD groups—10 μg/rat—Aβ). The animals were anesthetized with an intraperitoneal (ip) injection of a mixture of ketamine and xylazine (80 and 10 mg/kg b.w., respectively). Scrambled peptide and oAβ25–35 were injected directly into the lateral ventricles at a rate of 2 μL/min using a David-Kopf stereotaxic apparatus (coordinates of injection: AP −1 mm, L ±1.5 mm, DV −3.5 mm).
1—A curative approach: This treatment was started 1 week after the induction of amyloid toxicity (icv injection of oAβ25–35) and consisted of 2 ip injections (1.5 mg/kg per injection) per day for 1 week. On day 14, animals were subjected to a behavioral memory test (T-maze) and sacrificed on day 15 by decapitation.
(§1) 2—A preventive approach: This treatment was started at the same time as the induction of amyloid toxicity and consisted of implanting ip, and during the same anesthetic procedure necessary for the icv injection of oAβ25–35, an osmotic pump (Alzet-EML2, Charles-River, France) which continuously delivered the molecules for 1 week at the dose of 3 mg/kg/day. On day 7, animals were submitted to a behavioral memory test (T-maze) and sacrificed on day 8 by decapitation.
As previously reported, the T-maze test was used to rapidly assess cognitive ability in rats, especially the short-term memory deficits, when performed in two successive sessions.[37],[38],[64],[65] The T-maze consisted of two short arms (A and B), extending from a longer alley (C) and enclosed with high walls. The test involved two trials, separated by 1 h. During the training session, one short arm (B) was closed. Rats were placed at the end of the long alley, allowed to visit the maze for 10 min, and then returned to their home cage. […] The number of visits and time spent in each arm were measured. The results were expressed as the ratio of the time spent in the initially closed novel arm, over the time spent in the previous arm, and as a ratio of the number of entries into the novel arm over the familiar one. […]

In series [2] the test system is hippocampus of rats injected with oAβ25–35. Nature of the series: Western blot of hippocampal AD biomarkers in oAβ25–35-injected rats. Format: in vivo, rat. The following applies: oAβ25–35 icv. As to the method: As previously detailed,[37],[64] to induce the acute model of AD (oAβ25–35 model), rats were divided into three groups. […] The animals were anesthetized with an intraperitoneal (ip) injection of a mixture of ketamine and xylazine (80 and 10 mg/kg b.w., respectively). Scrambled peptide and oAβ25–35 were injected directly into the lateral ventricles at a rate of 2 μL/min using a David-Kopf stereotaxic apparatus (coordinates of injection: AP −1 mm, L ±1.5 mm, DV −3.5 mm).
On day 14, animals were subjected to a behavioral memory test (T-maze) and sacrificed on day 15 by decapitation.
as §1
At the time of sacrifice, all hippocampi were dissected out, weighed, and rapidly frozen in liquid nitrogen for Western blot (WB) analysis.
Western blot analyses were performed on the whole hippocampus as previously described.[37] All antibodies used are detailed in Table S3. Briefly, after sacrifice, hippocampi were microdissected, weighed, immediately frozen in liquid nitrogen, and stored at −20 °C. Tissues were sonicated (VibraCell; Sonics & Materials, USA) in a lysis buffer[37] and centrifuged (4 °C). Supernatants were collected, and the protein concentration was measured using a bicinchoninic Acid (BCA) assay (ThermoFisher Scientific, France). […] The membranes were incubated overnight (4 °C) with the primary antibody, washed, and then incubated for 2 h with the appropriate horseradish peroxidase-conjugated secondary antibody. […] The intensity of the immunoreactive signals was quantified using Image-J software (NIH, Bethesda, […], USA). β-Tubulin (β-Tub) was used as a loading control for all experiments.
Background: A western blot detects proteins with antibodies after separation by electrophoresis.

In the next series the target is T2, hMAO-B (Homo sapiens, UniProt P27338).
T2 construct: purchased Sigma-Aldrich M7441
T2 sequence (P27338 1-520): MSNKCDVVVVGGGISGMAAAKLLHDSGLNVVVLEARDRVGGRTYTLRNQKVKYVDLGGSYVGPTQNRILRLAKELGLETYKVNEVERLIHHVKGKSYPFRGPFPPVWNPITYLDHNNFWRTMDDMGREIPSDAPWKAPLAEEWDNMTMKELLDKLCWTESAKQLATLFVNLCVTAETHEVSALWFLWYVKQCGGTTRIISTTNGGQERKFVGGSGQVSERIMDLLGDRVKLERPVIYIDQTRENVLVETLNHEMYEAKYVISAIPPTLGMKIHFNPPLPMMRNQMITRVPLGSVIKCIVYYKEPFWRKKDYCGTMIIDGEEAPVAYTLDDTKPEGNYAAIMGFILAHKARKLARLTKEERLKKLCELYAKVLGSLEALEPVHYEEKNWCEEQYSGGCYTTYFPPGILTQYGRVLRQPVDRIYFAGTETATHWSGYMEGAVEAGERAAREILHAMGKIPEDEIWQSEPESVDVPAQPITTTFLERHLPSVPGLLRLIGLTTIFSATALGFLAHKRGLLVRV
Kind of series: MAO-B reversibility study. The following applies: at concentrations corresponding to IC80, p-tyramine raised to 1 mM. Format: biochemical.

Series [3] deals with SCOP-induced cognitive impairment in rats. Nature of the series: Scopolamine-induced amnesia in NOR test in rats. Format: in vivo, rat. The conditions noted are these: SCOP 1.25 mg/kg ip, PZ-1922 0.3, 1, 3 mg/kg ip, donepezil 1 and 3 mg/kg ip.
Method: Rats were allowed to acclimate for at least 7 days before the beginning of the experimental procedure. During this week, the animals were handled at least 3 times. Behavioral testing was carried out during the light phase of the light/dark cycle. The experiments were conducted in accordance with the NIH Guide for the Care and Use of Laboratory Animals and were approved by the Ethics Committee for Animal Experiments, Maj Institute of Pharmacology. At least 1 h before the beginning of the experiments, rats were transferred to the experimental room for acclimation. Rats were tested in a dimly lit (25 lx) “open field” apparatus made of dull gray plastic (66 × 56 × 30 cm). After each measurement, the floor was cleaned and dried. […] For the scopolamine-induced memory impairment paradigm, 1 h ITI was chosen. During the first trial (familiarization T1), two identical objects (A1 and A2) were presented in opposite corners, approximately 10 cm from the walls of the open field. In the second trial (recognition, T2), one of the objects was replaced by a novel one (A = familiar and B = novel). […] Exploration time of the objects and the distance traveled were measured using the Any-maze video tracking system. Based on exploration time (E) of two objects during T2, the discrimination index (DI) was calculated according to the formula DI = (EB – EA)/(EA + AB).
Series [4] deals with the molecule itself. Nature of the series: cryo-EM structure; purified receptor in detergent C12E9, pentameric SEC fractions concentrated to 10 mg/mL, incubated 5 min with PZ-1922 or PZ-1939 before freezing.
The mark [5] stands for this setting: 1.5 mg/kg ip twice a day for 7 days.

T1 sequence (P50406 whole entry): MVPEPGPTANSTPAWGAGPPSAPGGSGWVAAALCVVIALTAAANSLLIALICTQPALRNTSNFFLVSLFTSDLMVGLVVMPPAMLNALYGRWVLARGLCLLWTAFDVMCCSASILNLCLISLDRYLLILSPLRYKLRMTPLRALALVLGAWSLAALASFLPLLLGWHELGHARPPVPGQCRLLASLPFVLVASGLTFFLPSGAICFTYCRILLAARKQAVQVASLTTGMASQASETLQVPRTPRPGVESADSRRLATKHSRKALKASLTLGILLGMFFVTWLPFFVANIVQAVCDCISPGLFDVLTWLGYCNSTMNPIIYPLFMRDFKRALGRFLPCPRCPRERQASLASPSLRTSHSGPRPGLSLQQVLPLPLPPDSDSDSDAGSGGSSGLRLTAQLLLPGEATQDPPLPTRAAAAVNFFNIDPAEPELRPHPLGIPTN

In general, EC50 refers to the concentration at which the effect is half-maximal. With `NCCc1c[nH]c2ccc(C(N)=O)cc12` [Compound 5-CT, 5-carboxamidotryptamine], on h5-HT6R, the EC50 was determined as 13 nM.

As for `O=S(=O)(c1ccccc1)c1cnc2c(N3CCNCC3)cccc2c1` [Intepirdine, reference compound], the “effect on oAβ25–35-induced memory deficits in T-maze, curative treatment” value in series [1] (1.5 mg/kg ip twice a day for 7 days, started 1 week after icv oAβ25–35) was “only partially reversed the memory deficits”. Besides, the “effect on oAβ25–35-induced memory deficits in T-maze, preventive treatment” value in series [1] (3 mg/kg/day by ip osmotic pump for 1 week, concomitant with icv oAβ25–35) is on record as “did not exhibit the same preventive effect”. Also, in series [2] (setting [5]), the “hippocampal Caspase-3 and Pro-caspase-3 expression, curative strategy” value was “decreased expression of Caspase-3 and Pro-caspase-3”; the “hippocampal PSD-95 and SYN levels, curative treatment” value was “reversed only the SYN level”. The “hippocampal Caspase-3 and Pro-caspase-3 expression, preventive treatment” value in series [2] (3 mg/kg/day osmotic pump 1 week) is “prevented increased expression of Caspase-3 and Pro-caspase-3”. Further, the “hippocampal GFAP increase” value in series [2] (curative and preventive approach) is listed as “Neither PZ-1922 nor intepirdine impacted the GFAP increase”.

Take `C#CCN[C@@H]1CCc2ccccc21` [Rasagiline]: the “reversibility of MAO-B inhibition (recovery of MAO-B activity)” value at hMAO-B is on record as “irreversible inhibitor”.

In the case of `C[C@H](NCc1ccc(OCc2cccc(F)c2)cc1)C(N)=O` [Safinamide], on hMAO-B, the “reversibility of MAO-B inhibition (recovery of MAO-B activity)” value is given as “reversible MAO-B inhibitors”.

As for `COc1cc2c(cc1OC)C(=O)C(CC1CCN(Cc3ccccc3)CC1)C2` (centres unmarked) [donepezil], the “effect on SCOP-induced short-term memory deficits (discrimination index) in NOR test” value in series [3] was “reduced the memory deficits induced by SCOP”.

B1: mouse 5-HT3A receptor (receptor, UniProt P23979 24-489, looked up)
chain: SRRRATQARDTTQPALLRLSDHLLANYKKGVRPVRDWRKPTTVSIDVIMYAILNVDEKNQVLTTYIWYRQYWTDEFLQWTPEDFDNVTKLSIPTDSIWVPDILINEFVDVGKSPNIPYVYVHHRGEVQNYKPLQLVTACSLDIYNFPFDVQNCSLTFTSWLHTIQDINITLWRSPEEVRSDKSIFINQGEWELLEVFPQFKEFSIDISNSYAEMKFYVIIRRRPLFYAVSLLLPSIFLMVVDIVGFCLPPDSGERVSFKITLLLGYSVFLIIVSDTLPATAIGTPLIGVYFVVCMALLVISLAETIFIVRLVHKQDLQRPVPDWLRHLVLDRIAWILCLGEQPMAHRPPATFQANKTDDCSGSDLLPAMGNHCSHVGGPQDLEKTPRGRGSPLPPPREASLAVRGLLQELSSIRHFLEKRDEMREVARDWLRVGYVLDRLLFRIYLLAVLAYSITLVTLWSIWHYS
notes: 5-hydroxytryptamine (serotonin) receptor 3A, mouse; called full-length in the discussion; the construct is only said to be 'as previously described with some minor modifications'; The intracellular domain is only partly resolved; also called m5-HT3R; m5HT3R
The stoichiometry N is a count of units in the complex or per binding partner. In the case of B1, in series [4], the “stoichiometry N” value turned out to be 5.
